Measurements taken from patent US9682985B2, “(Indazol-4-yl) hexahydropyrrolopyrrolones and methods of use” (AbbVie Inc., priority 2015, dated 2017).

Assays:
Assay type in all cases: cell-based
recombinant human Nav1.7 = target: T1, recombinant human Nav1.7 (Homo sapiens, UniProt Q15858); assay: FRET-based membrane potential assay, Nav1.7; details: HEK293 cells expressing recombinant human Nav1.7; veratridine + scorpion venom depolarization
T1 construct: expressed in transfected cells; host or cells: HEK293
T1 sequence (Q15858 whole entry): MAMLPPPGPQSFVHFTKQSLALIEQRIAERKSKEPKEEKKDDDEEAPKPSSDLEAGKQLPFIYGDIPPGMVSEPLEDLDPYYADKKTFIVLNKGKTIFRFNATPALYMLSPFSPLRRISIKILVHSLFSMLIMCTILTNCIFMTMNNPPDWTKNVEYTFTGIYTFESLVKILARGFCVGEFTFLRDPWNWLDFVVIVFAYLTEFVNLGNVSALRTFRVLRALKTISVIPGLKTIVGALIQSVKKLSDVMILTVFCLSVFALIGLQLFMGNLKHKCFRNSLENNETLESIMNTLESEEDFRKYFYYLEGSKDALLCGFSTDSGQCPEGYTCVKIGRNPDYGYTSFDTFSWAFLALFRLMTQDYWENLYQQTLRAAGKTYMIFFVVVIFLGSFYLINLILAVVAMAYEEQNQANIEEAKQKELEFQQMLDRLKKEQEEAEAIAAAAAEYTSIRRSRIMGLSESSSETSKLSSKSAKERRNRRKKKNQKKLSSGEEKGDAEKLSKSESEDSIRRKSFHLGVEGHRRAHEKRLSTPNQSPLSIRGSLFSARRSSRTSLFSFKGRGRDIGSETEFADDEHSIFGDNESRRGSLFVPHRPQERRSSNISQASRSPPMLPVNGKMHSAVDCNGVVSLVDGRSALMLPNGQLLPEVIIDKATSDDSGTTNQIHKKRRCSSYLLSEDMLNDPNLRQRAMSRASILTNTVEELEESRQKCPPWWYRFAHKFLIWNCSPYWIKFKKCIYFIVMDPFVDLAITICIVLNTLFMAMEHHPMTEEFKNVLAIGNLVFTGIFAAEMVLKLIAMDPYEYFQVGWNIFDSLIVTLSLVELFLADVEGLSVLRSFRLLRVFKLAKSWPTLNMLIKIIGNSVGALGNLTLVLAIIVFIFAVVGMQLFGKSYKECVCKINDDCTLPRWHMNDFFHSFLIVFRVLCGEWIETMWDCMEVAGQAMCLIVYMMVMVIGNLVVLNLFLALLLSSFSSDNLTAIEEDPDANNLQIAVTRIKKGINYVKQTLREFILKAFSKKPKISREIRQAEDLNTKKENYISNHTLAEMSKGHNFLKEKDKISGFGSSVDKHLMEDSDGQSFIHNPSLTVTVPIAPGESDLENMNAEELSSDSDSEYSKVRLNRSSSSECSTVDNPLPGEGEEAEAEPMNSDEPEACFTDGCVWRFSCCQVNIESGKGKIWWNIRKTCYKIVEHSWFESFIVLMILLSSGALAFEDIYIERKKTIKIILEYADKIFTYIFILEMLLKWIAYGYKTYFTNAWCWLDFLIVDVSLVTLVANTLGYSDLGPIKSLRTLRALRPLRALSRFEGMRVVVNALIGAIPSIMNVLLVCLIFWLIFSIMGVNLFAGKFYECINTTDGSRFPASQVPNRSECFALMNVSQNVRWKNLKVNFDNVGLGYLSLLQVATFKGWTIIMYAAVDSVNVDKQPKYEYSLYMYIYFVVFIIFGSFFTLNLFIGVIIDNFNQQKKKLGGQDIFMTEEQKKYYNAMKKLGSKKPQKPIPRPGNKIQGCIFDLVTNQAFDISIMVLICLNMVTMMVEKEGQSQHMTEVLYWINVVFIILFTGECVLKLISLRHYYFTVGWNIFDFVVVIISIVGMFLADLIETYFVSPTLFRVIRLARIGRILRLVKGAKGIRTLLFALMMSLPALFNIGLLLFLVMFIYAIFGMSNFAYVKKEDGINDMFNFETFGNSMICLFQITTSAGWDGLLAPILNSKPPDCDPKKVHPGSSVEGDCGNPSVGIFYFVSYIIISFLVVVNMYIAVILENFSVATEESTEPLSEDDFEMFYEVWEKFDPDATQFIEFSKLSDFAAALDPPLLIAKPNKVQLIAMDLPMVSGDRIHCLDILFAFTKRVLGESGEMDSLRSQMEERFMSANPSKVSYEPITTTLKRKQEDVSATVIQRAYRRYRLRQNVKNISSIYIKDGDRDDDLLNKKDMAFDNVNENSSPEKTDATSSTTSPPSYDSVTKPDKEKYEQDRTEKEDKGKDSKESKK

recombinant human Nav1.8 = target: T2, recombinant human Nav1.8 (Homo sapiens, UniProt Q9Y5Y9); assay: FRET-based membrane potential assay, Nav1.8; details: HEK293 cells expressing recombinant human Nav1.8; veratridine + scorpion venom depolarization
T2 construct: host or cells: HEK293
T2 sequence (Q9Y5Y9 whole entry): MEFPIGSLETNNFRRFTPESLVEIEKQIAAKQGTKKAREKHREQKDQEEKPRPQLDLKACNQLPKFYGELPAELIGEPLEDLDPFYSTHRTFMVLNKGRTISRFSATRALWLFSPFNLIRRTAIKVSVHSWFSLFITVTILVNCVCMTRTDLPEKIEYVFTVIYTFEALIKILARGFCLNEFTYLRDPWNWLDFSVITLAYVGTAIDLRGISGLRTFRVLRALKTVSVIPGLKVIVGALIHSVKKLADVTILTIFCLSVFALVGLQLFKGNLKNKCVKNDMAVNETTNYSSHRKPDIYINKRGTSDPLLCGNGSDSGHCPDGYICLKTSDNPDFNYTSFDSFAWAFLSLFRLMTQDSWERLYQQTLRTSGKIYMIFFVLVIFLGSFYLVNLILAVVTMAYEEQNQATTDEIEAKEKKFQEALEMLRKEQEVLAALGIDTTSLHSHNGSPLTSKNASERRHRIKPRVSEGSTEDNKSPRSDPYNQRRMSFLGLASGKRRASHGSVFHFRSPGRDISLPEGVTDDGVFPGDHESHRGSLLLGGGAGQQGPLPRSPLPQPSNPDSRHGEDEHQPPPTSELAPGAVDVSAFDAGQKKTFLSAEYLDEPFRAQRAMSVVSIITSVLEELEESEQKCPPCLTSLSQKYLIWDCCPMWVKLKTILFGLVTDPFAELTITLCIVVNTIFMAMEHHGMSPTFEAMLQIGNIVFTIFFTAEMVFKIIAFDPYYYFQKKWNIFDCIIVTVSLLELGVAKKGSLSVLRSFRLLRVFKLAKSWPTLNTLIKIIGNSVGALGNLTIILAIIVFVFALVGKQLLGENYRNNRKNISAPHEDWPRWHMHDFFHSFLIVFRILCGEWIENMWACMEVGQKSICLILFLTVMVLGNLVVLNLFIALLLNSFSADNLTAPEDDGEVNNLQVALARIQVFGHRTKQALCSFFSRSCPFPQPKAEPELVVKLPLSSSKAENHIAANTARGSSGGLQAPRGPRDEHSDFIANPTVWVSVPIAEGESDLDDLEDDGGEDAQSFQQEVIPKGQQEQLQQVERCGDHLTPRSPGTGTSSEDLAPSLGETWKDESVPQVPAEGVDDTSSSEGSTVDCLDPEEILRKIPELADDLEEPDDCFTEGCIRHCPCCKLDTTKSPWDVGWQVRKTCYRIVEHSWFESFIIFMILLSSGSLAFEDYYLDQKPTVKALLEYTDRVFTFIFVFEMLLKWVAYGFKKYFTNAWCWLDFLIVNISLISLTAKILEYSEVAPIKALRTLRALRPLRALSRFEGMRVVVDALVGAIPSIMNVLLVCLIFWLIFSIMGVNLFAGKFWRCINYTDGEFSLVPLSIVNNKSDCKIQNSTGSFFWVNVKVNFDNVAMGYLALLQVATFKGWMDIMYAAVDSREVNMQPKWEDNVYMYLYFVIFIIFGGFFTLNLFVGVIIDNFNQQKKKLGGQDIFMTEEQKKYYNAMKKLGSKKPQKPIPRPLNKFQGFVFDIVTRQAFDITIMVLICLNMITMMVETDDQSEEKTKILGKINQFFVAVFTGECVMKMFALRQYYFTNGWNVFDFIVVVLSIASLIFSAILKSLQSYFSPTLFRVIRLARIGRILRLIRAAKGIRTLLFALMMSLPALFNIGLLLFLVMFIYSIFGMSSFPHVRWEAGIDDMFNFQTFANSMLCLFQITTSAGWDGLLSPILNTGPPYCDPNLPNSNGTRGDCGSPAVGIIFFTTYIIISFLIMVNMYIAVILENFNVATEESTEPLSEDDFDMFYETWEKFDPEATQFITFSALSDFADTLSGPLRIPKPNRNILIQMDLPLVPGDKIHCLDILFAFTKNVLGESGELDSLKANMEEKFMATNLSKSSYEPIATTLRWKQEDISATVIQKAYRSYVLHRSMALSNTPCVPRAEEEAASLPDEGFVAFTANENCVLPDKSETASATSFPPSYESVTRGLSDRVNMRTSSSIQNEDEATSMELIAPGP

hERG channel (Kv11.1) = target: T3, hERG channel (Kv11.1) (Homo sapiens, UniProt Q12809); assay: hERG QPatch screening protocol (hERG current block); details: HEK-293 cells stably transfected with hERG; tail current; room temperature
T3 construct: W. January (Wisconsin Alumni Research Foundation); host or cells: HEK-293
T3 sequence (Q12809 whole entry): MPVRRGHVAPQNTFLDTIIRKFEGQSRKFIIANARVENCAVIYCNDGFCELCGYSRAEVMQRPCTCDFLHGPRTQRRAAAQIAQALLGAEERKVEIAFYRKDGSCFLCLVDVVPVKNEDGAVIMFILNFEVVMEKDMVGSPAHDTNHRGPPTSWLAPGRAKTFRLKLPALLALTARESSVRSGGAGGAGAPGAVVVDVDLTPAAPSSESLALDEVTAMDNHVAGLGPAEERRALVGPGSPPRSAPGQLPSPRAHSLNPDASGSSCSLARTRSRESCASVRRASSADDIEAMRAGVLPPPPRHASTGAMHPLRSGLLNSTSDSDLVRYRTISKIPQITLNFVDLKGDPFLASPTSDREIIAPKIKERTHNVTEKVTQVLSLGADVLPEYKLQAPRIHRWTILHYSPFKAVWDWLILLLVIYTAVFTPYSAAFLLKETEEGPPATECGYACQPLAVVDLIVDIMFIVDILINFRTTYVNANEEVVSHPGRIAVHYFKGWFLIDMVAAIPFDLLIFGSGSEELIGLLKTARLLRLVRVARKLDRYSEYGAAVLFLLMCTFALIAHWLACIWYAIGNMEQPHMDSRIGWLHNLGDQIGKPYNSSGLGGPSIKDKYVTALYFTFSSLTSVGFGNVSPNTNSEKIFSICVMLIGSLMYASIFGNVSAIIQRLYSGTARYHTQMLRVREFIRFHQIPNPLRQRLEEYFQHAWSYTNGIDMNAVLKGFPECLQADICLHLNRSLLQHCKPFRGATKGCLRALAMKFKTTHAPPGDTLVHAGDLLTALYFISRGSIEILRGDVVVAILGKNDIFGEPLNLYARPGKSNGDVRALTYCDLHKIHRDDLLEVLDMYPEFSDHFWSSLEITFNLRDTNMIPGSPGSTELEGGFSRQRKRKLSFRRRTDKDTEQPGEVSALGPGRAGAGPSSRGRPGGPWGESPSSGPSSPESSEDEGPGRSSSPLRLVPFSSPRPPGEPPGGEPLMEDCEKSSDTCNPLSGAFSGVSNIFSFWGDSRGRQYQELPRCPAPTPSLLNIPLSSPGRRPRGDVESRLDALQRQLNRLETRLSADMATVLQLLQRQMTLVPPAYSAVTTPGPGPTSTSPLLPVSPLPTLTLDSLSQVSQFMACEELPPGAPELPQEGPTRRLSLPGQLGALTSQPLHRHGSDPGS
Method: hERG QPatch Screening Protocol
Solutions and Compound Plates:
The bath solution contained (in mM): 140 NaCl, 5 KCl, 1 MgCl2, 2 CaCl2, 5 glucose, 20 HEPES, pH=7.4. The internal solution contained (in mM): 125 K-aspartate, 20 KCl, 10 EGTA, 5 MgATP, 1 MgCl2, 5 HEPES, pH=7.3.
Compound plates were prepared with an acoustic liquid handler (Echo® 550, Labcyte), using 384-well source plates and 96-well destination plates. Compounds were delivered to the destination plates as 300 nL spots in half-log increments (1, 3, 10 and 30 mM), dissolved in dimethyl sulfoxide. Plates were solvated with bath solution (300 μL) to final concentrations (1, 3, 10 and 30 μM; 0.1% dimethyl sulfoxide) and added to the QPatch workstation.
Cells and Cell Preparation:
Human embryonic kidney (HEK-293) cells, stably transfected with the hERG channel, were obtained from Dr. C. W. January (Wisconsin Alumni Research Foundation). Cells were initially maintained at 37° C. (5% CO2 atmosphere) in MEM supplemented media. Cells were cryo-preserved in 10% dimethyl sulfoxide, 90% fetal bovine serum at 10 M cells/mL. For electrophysiological studies, cells were thawed, resuspended in media at 1.0-1.5 M cells/mL and placed on the QPatch workstation.
QPatch Electrophysiology Workstation and Experimental Protocol:
Currents were recorded using QPatch HT (Sophion), an automated planar patch-clamp system. The QPatch uses forty-eight amplifiers and a 48-chamber QPlate positioned directly on top of the headstage. To obtain high resistant seals, cells are added to each chamber and allowed to settle for 10 seconds. Negative pressure is then applied to promote cell delivery to the patch chip openings on the chamber bottom. After formation of GΩ seals, negative pressure ramps are applied to obtain intracellular access. Access resistance was initially optimized by additional pressure ramps to assure the intracellular access was adequate for voltage clamp experiments (targeted access resistance <10 MΩ). Whole-cell compensation and series resistance compensation were used at 60% (both predicted and corrected). Experiments using QPatch were conducted at room temperature.
A single application of each concentration was applied to cells. During a five-minute wash-in period, a four-second depolarizing pulse to +20 mV, followed by a five-second repolarizing pulse to −50 mV was applied once every 15 seconds from a holding potential of −80 mV. Cells were exposed to four ascending concentrations of drug in half-log intervals.
Evaluation of hERG Current Block:
hERG tail current was measured as the difference in amplitude between a […] and the end of a five-second test pulse to −50 mV, preceded by a four-second pulse to +20 mV. The hERG IC50 values for compounds were determined from tail current analysis. The IC50 was calculated with a logistic fitting routine using the following equation: y=[(A1−A2)/(1+(x/IC50))^p]A2, where A1=initial×value, A2=final×value and p=power.

| SMILES | IC50 (recombinant human Nav1.7) [µM] | IC50 (recombinant human Nav1.8) [µM] | IC50 (hERG channel (Kv11.1)) [µM] |
| --- | --- | --- | --- |
| O=C1[C@H]2[C@H](CCN2C(=O)[C@@H]2CCOC2)CN1c1cccc2c1cnn2-c1ccccc1F (mixture of isomers) [Example 3, (3aR*,6aR*)-5-[1-(2-fluorophenyl)-1H-indazol-4-yl]-1-[(3R)-tetrahydrofuran-3-ylcarbonyl]hexahydropyrrolo[3,4-b]pyrrol-6(1H)-one] | 1.93 | 5.4 | > 30 |
| C[C@@H](O)CC(=O)N1CC[C@@H]2CN(c3cccc4c3cnn4-c3ccccc3F)C(=O)[C@@H]21 (mixture of isomers) [Example 7, (3aR*,6aR*)-5-[1-(2-fluorophenyl)-1H-indazol-4-yl]-1-[(3R)-3-hydroxybutanoyl]hexahydropyrrolo[3,4-b]pyrrol-6(1H)-one] | 3.19 | 3.08 | > 30 |
| CC(=O)N1CC[C@@H]2CN(c3cccc4c3cnn4-c3ccccc3F)C(=O)[C@@H]21 (relative stereo) [Example 6, rel-(3aR,6aR)-1-acetyl-5-[1-(2-fluorophenyl)-1H-indazol-4-yl]hexahydropyrrolo[3,4-b]pyrrol-6(1H)-one] | 13.1 | 14.7 | – |
| O=C1[C@@H]2CN(S(=O)(=O)c3ccccc3)C[C@@H]2CN1c1cccc2c1cnn2-c1ccccc1F [Example 29, (3aS,6aS)-2-[1-(2-fluorophenyl)-1H-indazol-4-yl]-5-(phenylsulfonyl)hexahydropyrrolo[3,4-c]pyrrol-1(2H)-one] | 2.88 | – | 26.5 |
| O=C(c1coc(CN2CCCC2)n1)N1C[C@@H]2CN(c3cccc4c3cnn4-c3ccccc3F)C(=O)[C@@H]2C1 [Example 31, (3aR,6aS)-2-[1-(2-fluorophenyl)-1H-indazol-4-yl]-5-{[2-(pyrrolidin-1-ylmethyl)-1,3-oxazol-4-yl]carbonyl}hexahydropyrrolo[3,4-c]pyrrol-1(2H)-one] | 0.463 | – | 13.5 |
| O=C(C1CC(Cl)C1)N1C[C@H]2CN(c3cccc4c3cnn4-c3ccccc3F)C(=O)[C@H]2C1 (stereo partly drawn) [Example 43, (3aS,6aR)-5-[(3-chlorocyclobutyl)carbonyl]-2-[1-(2-fluorophenyl)-1H-indazol-4-yl]hexahydropyrrolo[3,4-c]pyrrol-1(2H)-one] | 3.03 | – | > 30 |
| NC(=O)CC(=O)N1C[C@H]2CN(c3cccc4c3cnn4-c3ccccc3F)C(=O)[C@H]2C1 [Example 44, 3-[(3aR,6aS)-5-[1-(2-fluorophenyl)-1H-indazol-4-yl]-4-oxohexahydropyrrolo[3,4-c]pyrrol-2(1H)-yl]-3-oxopropanamide] | > 20 | > 20 | – |
| O=C(CCO)N1C[C@H]2CN(c3cccc4c3cnn4-c3ccccc3F)C(=O)[C@H]2C1 [Example 45, (3aS,6aR)-2-[1-(2-fluorophenyl)-1H-indazol-4-yl]-5-(3-hydroxypropanoyl)hexahydropyrrolo[3,4-c]pyrrol-1(2H)-one] | > 20 | > 20 | – |
| CC(=O)N1C[C@H]2CN(c3cccc4c3cnn4-c3ccccc3F)C(=O)[C@H]2C1 [Example 46, (3aS,6aR)-5-acetyl-2-[1-(2-fluorophenyl)-1H-indazol-4-yl]hexahydropyrrolo[3,4-c]pyrrol-1(2H)-one] | 3.56 | – | > 30 |
| CC(C)(O)C(=O)N1CC[C@H]2CN(c3cccc4c3cnn4-c3ccccc3F)C(=O)[C@H]21 [Example 49, (3aS,6aS)-5-[1-(2-fluorophenyl)-1H-indazol-4-yl]-1-(2-hydroxy-2-methylpropanoyl)hexahydropyrrolo[3,4-b]pyrrol-6(1H)-one] | 0.397 | 4.03 | – |
